The text below walks through data of US11072632B2, “Inhibitors of 17β-HSD1, 17β-HSD3 and 17β-HSD10” (UNIVERSITÉ LAVAL, priority 2011, dated 2021).

Data set [1] deals with T-47D cells. Nature of the data set: Estrogenic (proliferative) activity on T-47D (ER+) cell line. It is filed as cell-based, human. Particulars: 0.5, 1, 2.5 and 5 μM, 7 days. The method, then: Quantification of cell growth was determined by using CellTiter 96®Aqueous Solution Cell Proliferation Assay (Promega, Nepean, ON, Canada) following the manufacturer's instructions. T-47D cells were resuspended with the medium supplemented with insulin (50 ng/mL) and 5% dextran-coated charcoal treated FBS rather than 10% FBS to remove remaining hormones. Aliquots (100 μL) of the cell suspension were seeded in 96-well plates (3000 cells/well). After 48 h, the medium was changed with a new one containing an appropriate concentration of products to be tested and was replaced every 2 days. Cells have grown either in absence or presence of the compounds for 7 days. To determine the proliferative (estrogenic) activity, the estrogen-sensitive T-47D cells were grown in absence (basal cell proliferation was fixed as 100%) or presence of compounds to be tested at 0.5 to 10 μM. The potent estrogen E2 was used as a reference control. […] The cell proliferation without E1±inhibitor (control) was fixed as 100%. To determine the potential antiestrogenic activity of inhibitor Compound V, the T-47D (ER^+) cells were grown in the presence of estrogen E2 (0.1 nM) and pure antiestrogen EM-139 (0.5 μM) or inhibitor Compound V (0.5 μM). The cell proliferation without E2 and tested compounds (control) were fixed as 100%.

For data set [2], the system named is T-47D tumors. Nature of the data set: Inhibition of E1-stimulated T-47D tumor growth in nude OVX mice (xenograft). Type of data set: in vivo, mouse. As to the method:
Female OVX BALB/c athymic nude mice weighing approximately 20 g were obtained from Charles-River, Inc. (St-Constant, Qc., Canada). The animals were housed 5 per cage. […] T-47D tumor growth was stimulated using 0.1 μg of E1 s.c. per mouse per day for 15 days. From day 16, animals with tumors were randomized in function of tumor volume and separated into three groups. Group 1 (control mice) was treated s.c. with 100 μL of vehicle alone (8% EtOH/92% PG) per mouse per day. Group 2 (E1 0.1 μg) was treated with E1 (0.1 μg/day, s.c. per mouse) during 32 days. Group 3 (E1 0.1 μg+Compound V 250 μg) was treated with E1 (0.1 μg/day) and Compound V (250 μg/day) per mouse in a combined s.c. injection for 32 days. The mice were weighed at start and volumes of tumors were determined by external caliper twice a week and the greatest longitudinal diameter (length) and the greatest transverse diameter (width) were determined. Tumor volume based on caliper measurements was calculated by the modified ellipsoidal formula: Tumor volume=½(length×width^2) (Jensen M M, Jorgensen J T, Binderup T, Kjaer A. Tumor volume in subcutaneous mouse xenografts measured by microCT is more accurate and reproducible than determined by 18F-FDG-microPET or external caliper. BMC Med Imaging 2008; 8:16). At the end of the studies the mice were terminally anaesthetized, final body weights and tumor sizes were determined. Uteri and vagina were removed, excised of fat and weighed (Day J M, Foster P A, Tutill H J, Parsons M F, Newman S P, Chander S K, et al. 17beta-hydroxysteroid dehydrogenase type 1, and not type 12, is a target for endocrine therapy of hormone-dependent breast cancer. Int J Cancer 2008; 122:1931-40; Husen B, Huhtinen K, Poutanen M, Kangas L, Messinger J, Thole H. Evaluation of inhibitors for 17beta-hydroxysteroid dehydrogenase type 1 in vivo in immunodeficient mice inoculated with MCF-7 cells stably expressing the recombinant human enzyme. Mol Cell Endocrinol 2006; 248:109-13; Husen B, Huhtinen K, Saloniemi T, Messinger J, Thole H H, Poutanen M: Human hydroxysteroid (17-beta) dehydrogenase 1 expression enhances estrogen sensitivity of MCF-7 breast cancer cell xenografts. Endocrinology 2006; 147:5333-9; Messinger J, Hirvela L, Husen B, Kangas L, Koskimies P, Pentikainen O, et al. New inhibitors of 17beta-hydroxysteroid dehydrogenase type 1. Mol Cell Endocrinol 2006; 248:192-8).

The target in data set [3] is T1, 17β-HSD2 (Homo sapiens, UniProt P37059).
T1 construct: expressed in transfected cells
T1 sequence (P37059 1-387): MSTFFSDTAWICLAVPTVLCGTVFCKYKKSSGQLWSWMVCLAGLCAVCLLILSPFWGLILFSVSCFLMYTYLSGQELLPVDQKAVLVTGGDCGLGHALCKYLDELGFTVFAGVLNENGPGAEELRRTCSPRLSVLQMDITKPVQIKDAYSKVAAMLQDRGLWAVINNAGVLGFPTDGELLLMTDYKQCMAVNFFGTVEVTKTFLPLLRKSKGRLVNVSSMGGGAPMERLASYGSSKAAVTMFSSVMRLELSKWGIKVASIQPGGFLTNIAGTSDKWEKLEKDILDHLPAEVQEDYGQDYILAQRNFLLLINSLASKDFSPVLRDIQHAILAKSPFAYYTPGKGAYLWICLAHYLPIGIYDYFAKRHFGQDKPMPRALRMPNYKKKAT
It is filed as cell-based. Particulars: 5 nM to 20 μM. As to the method: Inhibition assays were performed using stable 17β-HSD2 HEK-293 transfected intact cells with 5000 cells per well using 24 well plates (Poirier et al. Mol. Cell. Endocrinol., 2001, 171, 119-128). The cells were incubated for 1 h at 37° C. in 1 mL of MEM medium steroid free with 60 nM C^14 estradiol.

The test system of data set [4] is ovariectomized (OVX) BALB/c mice. Nature of the data set: In vivo estrogenicity assay in OVX mice (uterus, vagina weight). To be noted: 7 days; for weight of the uterus: OVX mice, s.c. Set-up: species or system mouse. The method, then:
Female ovariectomized (OVX) BALB/c mice weighing approximately 20 g were obtained from Charles-River, Inc. (St-Constant, Qc., Canada). The animals were housed 5 per cage. Groups of 5 mice were treated with E1 (0.02 μg in 8% EtOH/92% PG) or 17β-HSD1 inhibitor at 10, 50 and 250 μg (0.1 mL s.c.) daily for 7 days. Animals were killed 24 h after administration of the last dose of compound and uteri and vagina were removed, excised of fat and weighed. Total body weights of mice were also recorded.

“Also recorded” adds a separate entry of the source.

On to `C[C@]12CC[C@@H]3c4ccc(CCBr)cc4CC[C@H]3[C@@H]1C[C@H](Cc1cccc(C(N)=O)c1)[C@@H]2O` [Compound V, 3-{[(16β,17β)-3-(2-bromoethyl)-17-hydroxyestra-1(10),2,4-trien-16-yl]methyl}benzamide], for which the “estrogenic (proliferative) activity on T-47D cells” value in data set [1] is recorded as “not estrogenic at any concentration tested”. The toxicity entry in data set [2] (250 μg/day/mouse (s.c.), 32 days) is listed as “no apparent toxicity”. The “effect on mouse weight” value in data set [2] (32-day treatment period) is “no effect”. Further, in data set [2] (E1 0.1 μg/day + Compound V 250 μg/day s.c., 32 days), the “growth of E1-stimulated tumors inhibited (%)” value is recorded as 74%. Moreover, the “effect on E1-stimulated uterine and vaginal weight” value in data set [2] (E1 0.1 μg/day + Compound V 250 μg/day, 32 days) is “had no effect on the E1-stimulated uterine and vaginal weight increase”. In addition, the “inhibition of 17β-HSD2 (conversion of E2 to E1)” value in data set [3] is reported as “no inhibition; also recorded: did not show any inhibition”. In addition, the estrogenicity in vivo entry in data set [4] (10, 50 and 250 μg/mouse/day) was “non-estrogenic in vivo”. The “weight of the uterus” value is 25 mg in data set [4] (10 μg/mouse/day), 24 mg in data set [4] (50 μg/mouse/day) and 23 mg in data set [4] (250 μg/mouse/day).
